Data from patent publication US20250242064A1, “CXCR4-TARGETING COMPOUNDS, AND METHODS OF MAKING AND USING THE SAME” (PROVINCIAL HEALTH SERVICES AUTHORITY, priority 2022, published 2025).
Where a SMILES comes first, the peptide text is derived from it. Bridges are numbered along the chain shown (N, C = ends). [ ]: non-standard residue; d: D form. The star is where a group is joined. X1 = O=C(O)CN1CCN(CC(=O)O)CCN(CC(=O)N[C@@H](CS(=O)(=O)O)C(=O)N[C@@H](CCCCNC(=O)CCCc2ccc(I)cc2)C(=O)*)CCN(CC(=O)O)CC1; 2Nal = N[C@@H](Cc1ccc2ccccc2c1)C(=O)O; Lys(iPr) = CC(C)NCCCC[C@H](N)C(=O)O

Test: in vivo
Set-up: species or system mice
Settings: male, mouse, iv, total radioactivity
Procedure: The Z138 Mantle cell lymphoma cell line was purchased from the American Type Culture Collection (ATCC©CRL-3001). The cell line was cultured in a 5% CO2 atmosphere at 37° C. in a humidified incubator with IMDM medium supplemented with 10% fetal bovine serum, 100 I.U./mL penicillin, and 100 μg/mL streptomycin.
[^68Ga]GaCl3 was eluted from an iThemba Labs generator with a total of 4 mL of 0.1 M HCl. The eluted [^68Ga]GaCl3 solution was added to 2 mL of concentrated HCl. This radioactive mixture was then added to a DGA resin column and washed with 3 mL of 5 M HCl. The column was then dried with air and the [^68Ga]GaCl3 (0.10-0.50 GBq) was eluted with 0.5 mL of water into a vial containing a solution of the unlabeled precursor (25 μg) in 0.7 mL HEPES buffer (2 M, pH 5.3). The reaction mixture was heated in a microwave oven (Danby; DMW7700WDB) for 1 min at power setting 2. The mixture was purified by semi-prep HPLC and quality control was performed via analytical HPLC with the co-injection of the unlabeled standard with a one-twelfth of the radiotracer. Radiochemical yields (decay-corrected) were >50% and radiochemical purities were >95%.
Animal experiments were performed in accordance with guidelines established by the Canadian Council on Animal Care, under a research protocol approved by the Animal Ethics Committee of the University of British Columbia. For all studies, male NOD.Cg-Rag1tm1Momll2rgtm1Wjl/SzJ (NRG) mice were used and cells injected in a 100 μL solution of 1:1 ratio of PBS/Matrigel. For preclinical imaging and biodistribution studies, 5×10^6 cells of Z138, cells were subcutaneously inoculated on the left or right flank and tumors were grown to a size of 200-300 mm^3. […]
Under isoflurane anesthesia (2-2.5% isoflurane in 2 L/min 02), mice were injected intravenously with [^68Ga]Ga-BL34L6 or [^68Ga]Ga-BL34L7. Mice were euthanized by CO2 inhalation after anesthesia with isoflurane. Tissues were harvested, washed in PBS, patted dry, weighed, and then assayed radioactivity on a gamma counter. Counted radioactivities were converted to percentage injected dose per gram of tissue (% ID/g) using a calibration curve.

[1] = NOD.Cg-Rag1tm1Mom Il2rgtm1Wjl/SzJ (NRG), Biodistribution: Adrenals
[2] = NOD.Cg-Rag1tm1Mom Il2rgtm1Wjl/SzJ (NRG), Biodistribution: Bone
[3] = NOD.Cg-Rag1tm1Mom Il2rgtm1Wjl/SzJ (NRG), Biodistribution: Brain
[4] = NOD.Cg-Rag1tm1Mom Il2rgtm1Wjl/SzJ (NRG), Biodistribution: Heart
[5] = NOD.Cg-Rag1tm1Mom Il2rgtm1Wjl/SzJ (NRG), Biodistribution: Kidneys
[6] = NOD.Cg-Rag1tm1Mom Il2rgtm1Wjl/SzJ (NRG), Biodistribution: Liver
[7] = NOD.Cg-Rag1tm1Mom Il2rgtm1Wjl/SzJ (NRG), Biodistribution: Lungs
[8] = NOD.Cg-Rag1tm1Mom Il2rgtm1Wjl/SzJ (NRG), Biodistribution: Muscle
[9] = NOD.Cg-Rag1tm1Mom Il2rgtm1Wjl/SzJ (NRG), Biodistribution: Pancreas
[10] = NOD.Cg-Rag1tm1Mom Il2rgtm1Wjl/SzJ (NRG), Biodistribution: Small Intestine
[11] = NOD.Cg-Rag1tm1Mom Il2rgtm1Wjl/SzJ (NRG), Biodistribution: Spleen
[12] = NOD.Cg-Rag1tm1Mom Il2rgtm1Wjl/SzJ (NRG), Biodistribution: Z138 Tumor
[13] = NOD.Cg-Rag1tm1Mom Il2rgtm1Wjl/SzJ (NRG), Ratio Tumor-to-Blood
[14] = NOD.Cg-Rag1tm1Momll2rgtm1Wjl/SzJ (NRG), Biodistribution: Blood
[15] = NOD.Cg-Rag1tm1Momll2rgtm1Wjl/SzJ (NRG), Biodistribution: Stomach
[16] = NOD.Cg-Rag1tm1Momll2rgtm1Wjl/SzJ (NRG), Biodistribution: Testes
[17] = NOD.Cg-Rag1tm1Momll2rgtm1Wjl/SzJ (NRG), Ratio Tumor-to-Bone
[18] = NOD.Cg-Rag1tm1Momll2rgtm1Wjl/SzJ (NRG), Ratio Tumor-to-Kidney
[19] = NOD.Cg-Rag1tm1Momll2rgtm1Wjl/SzJ (NRG), Ratio Tumor-to-Muscle
[20] = NOD.Cg-Rag1tm1Momll2rgtm1Wjl/SzJ (NRG), Ratio Tumor-to-Pancreas

tissue uptake at 24 h [1]: 2.44 %ID/g | tissue uptake at 72 h [1]: 1.8 %ID/g | tissue uptake at 120 h [1]: 1.62 %ID/g | tissue uptake at 24 h [2]: 0.71 %ID/g | tissue uptake at 72 h [2]: 0.42 %ID/g | tissue uptake at 120 h [2]: 0.29 %ID/g | tissue uptake at 24 h [3]: 0.18 %ID/g | tissue uptake at 72 h [3]: 0.07 %ID/g | tissue uptake at 120 h [3]: 0.05 %ID/g | tissue uptake at 24 h [4]: 1.8 %ID/g | tissue uptake at 72 h [4]: 1.1 %ID/g | tissue uptake at 120 h [4]: 0.76 %ID/g | tissue uptake at 24 h [5]: 2.67 %ID/g | tissue uptake at 72 h [5]: 1.19 %ID/g | tissue uptake at 120 h [5]: 0.75 %ID/g | tissue uptake at 24 h [6]: 1.99 %ID/g | tissue uptake at 72 h [6]: 1.1 %ID/g | tissue uptake at 120 h [6]: 0.45 %ID/g | tissue uptake at 24 h [7]: 4.88 %ID/g | tissue uptake at 72 h [7]: 2.86 %ID/g | tissue uptake at 120 h [7]: 1.91 %ID/g | tissue uptake at 24 h [8]: 0.76 %ID/g | tissue uptake at 72 h [8]: 0.38 %ID/g | tissue uptake at 120 h [8]: 0.21 %ID/g | tissue uptake at 24 h [9]: 1.05 %ID/g | tissue uptake at 72 h [9]: 0.45 %ID/g | tissue uptake at 120 h [9]: 0.53 %ID/g | tissue uptake at 24 h [10]: 0.79 %ID/g | tissue uptake at 72 h [10]: 0.38 %ID/g | tissue uptake at 120 h [10]: 0.21 %ID/g | tissue uptake at 24 h [11]: 2.13 %ID/g | tissue uptake at 72 h [11]: 1.96 %ID/g | tissue uptake at 120 h [11]: 1.86 %ID/g | tissue uptake at 24 h [12]: 26.6 %ID/g | tissue uptake at 72 h [12]: 35 %ID/g | tissue uptake at 120 h [12]: 41.2 %ID/g | tissue to tissue ratio at 24 h [13]: 3.42 | tissue to tissue ratio at 72 h [13]: 12.3 | tissue to tissue ratio at 120 h [13]: 25 | tissue to tissue ratio at 72 h (NOD.Cg-Rag1tm1Mom Il2rgtm1Wjl/SzJ (NRG), Ratio Tumor-to-Muscle): 91.8 | tissue uptake at 24 h [14]: 7.82 %ID/g | tissue uptake at 72 h [14]: 2.84 %ID/g | tissue uptake at 120 h [14]: 1.6 %ID/g | tissue uptake at 24 h [15]: 0.75 %ID/g | tissue uptake at 72 h [15]: 0.32 %ID/g | tissue uptake at 120 h [15]: 0.24 %ID/g | tissue uptake at 24 h [16]: 2.64 %ID/g | tissue uptake at 72 h [16]: 1.47 %ID/g | tissue uptake at 120 h [16]: 2.04 %ID/g | tissue to tissue ratio at 24 h [17]: 28.3 | tissue to tissue ratio at 72 h [17]: 53.7 | tissue to tissue ratio at 120 h [17]: 55.9 | tissue to tissue ratio at 24 h [18]: 10.1 | tissue to tissue ratio at 72 h [18]: 29.3 | tissue to tissue ratio at 120 h [18]: 54.2 | tissue to tissue ratio at 24 h [19]: 35.8 | tissue to tissue ratio at 120 h [19]: 190 | tissue to tissue ratio at 24 h [20]: 25.9 | tissue to tissue ratio at 72 h [20]: 71.7 | tissue to tissue ratio at 120 h [20]: 122
Compound: CC(C)NCCCC[C@H](NC(=O)[C@H]1CCC(=O)N[C@@H](CCCCNC(=O)[C@H](CCCCNC(=O)CCCc2ccc(I)cc2)NC(=O)[C@H](CS(=O)(=O)O)NC(=O)CN2CCN(CC(=O)O)CCN(CC(=O)O)CCN(CC(=O)O)CC2)C(=O)N[C@@H](Cc2ccc(O)cc2)C(=O)N[C@@H](CCCCNC(C)C)C(=O)N[C@H](CCCNC(=N)N)C(=O)N[C@@H](Cc2ccc3ccccc3c2)C(=O)N[C@H](C)C(=O)N1)C(N)=O [[^177Lu]Lu-BL34L11, metal not drawn] (K(X1)Y[Lys(iPr)][dR][2Nal][dA][dE][Lys(iPr)]-NH2; lactam N-7)
